Like-named read-outs stand apart in the source and are kept apart here.
Tests used:
End1 cells = conditions: MTT, vs untreated control; for decrease in cell viability: significant
ECM1 [1] = conditions: Ect1, 200 μM H2O2, 24 h, vs control untreated cells, ± SEM
FGA [2] = conditions: End1, 100 μM H2O2, 24 h, vs control untreated cells, ± SEM
EFEMP1 = conditions: End1, 100 μM H2O2, 24 h, vs control untreated cells, ± SEM
GGH [3] = assay: GGH in medium of Ect1 post-H2O2 treatment, ELISA; conditions: for Fold change GGH expression: vs control untreated cells, ± SEM
GGH [4] = assay: GGH in medium of End1 post-H2O2 treatment, ELISA; conditions: vs control untreated cells, ± SEM
ECM1 [5] = assay: ECM1 in medium of End1 post-H2O2 treatment, ELISA; conditions: vs control untreated cells, ± SEM
LAMC2 [6] = assay: LAMC2 in medium of End1 post-H2O2 treatment, ELISA; conditions: vs control untreated cells, ± SEM
Ect1 cells = assay: MTT assay, cell viability and proliferation after H2O2 treatment, Ect1; conditions: vs untreated control
ECM1 [7] = assay: ECM1 in medium of Ect1 post-LPS treatment, ELISA; assay type: cell-based; conditions: 24 h, vs control untreated cells, ± SEM
Description: (§1) At Day 1, cell culture was removed and substituted with KSFM without growth factor supplement. Cells were then treated with increasing doses of LPS (10 μg/ml, 25 μg/ml, 50 μg/ml) at Day 2.

GGH [8] = assay: GGH in medium of Ect1 post-LPS treatment, ELISA; assay type: cell-based; conditions: for Fold change GGH expression: 24 h, vs control untreated cells, ± SEM
Description: as §1

FGA [9] = assay: FGA in medium of Ect1 post-LPS treatment, ELISA; assay type: cell-based; conditions: for Fold change FGA expression: 24 h, vs control untreated cells, ± SEM
Description: as §1

LAMC2 [10] = assay: LAMC2 in medium of Ect1 post-LPS treatment, ELISA; assay type: cell-based; conditions: Ect1, 50 μg/ml LPS, 24 h, vs control untreated cells, ± SEM
Description: as §1

ECM1 [11] = assay: ECM1 in medium of End1 post-LPS treatment, ELISA; assay type: cell-based; conditions: for Fold change ECM1 expression: 24 h, vs control untreated cells, ± SEM
Description: as §1

GGH [12] = assay: GGH in medium of End1 post-LPS treatment, ELISA; assay type: cell-based; conditions: for Fold change GGH expression: 24 h, vs control untreated cells, ± SEM
Description: as §1

FGA [13] = assay: FGA in medium of End1 post-LPS treatment, ELISA; assay type: cell-based; conditions: for Fold change FGA expression: 24 h, vs control untreated cells, ± SEM
Description: as §1

LAMC2 [14] = assay: LAMC2 in medium of End1 post-LPS treatment, ELISA; assay type: cell-based; conditions: 24 h, vs control untreated cells, ± SEM
Description: as §1

[15] = Ect1, 3 different doses of LPS, statistically insignificant
[16] = End1, LPS treatment, dose not specified

OO [H2O2, Hydrogen peroxide]
effect on cell viability (End1 cells; 50 μM H2O2, 24 h): no effect | decrease in cell viability (End1 cells; 100 μM H2O2, 24 h): ~20% | decrease in cell viability (End1 cells; 200 μM H2O2, 24 h): ~50% | decrease in cell viability (End1 cells; 400 μM H2O2, 24 h): ~90% | Fold change ECM1 expression (ECM1 [1]): 1.09 ± 0.21 fold | Fold change FGA expression (FGA [2]): 0.96 ± 0.21 fold | Fold change EFEMP1 expression (EFEMP1): 0.73 ± 0.12 fold | Fold change GGH expression (GGH [3]; Ect1, 200 μM H2O2, 24 h): 0.73 ± 0.16 fold | Fold change GGH expression (GGH [3]; Ect1, 400 μM H2O2, 24 h): 1.01 ± 0.25 fold | GGH expression upon H2O2 treatment (GGH [3]; Ect1, H2O2 24 h, dose not given): remained relatively unchanged | Fold change GGH expression (GGH [4]; End1, 100 μM H2O2, 24 h): 0.75 ± 0.16 fold | Fold change GGH expression (GGH [4]; End1, 200 μM H2O2, 24 h): 0.86 ± 0.18 fold | Fold change ECM1 expression (ECM1 [5]; End1, 100 μM H2O2, 24 h): 1.02 ± 0.16 fold | Fold change ECM1 expression (ECM1 [5]; End1, 200 μM H2O2, 24 h): 0.90 ± 0.07 fold | Fold change LAMC2 expression (LAMC2 [6]; End1, 100 μM H2O2, 24 h): 1.15 ± 0.17 fold | Fold change LAMC2 expression (LAMC2 [6]; End1, 200 μM H2O2, 24 h): 0.95 ± 0.16 fold | effect on cell viability (Ect1 cells; 50 μM H2O2, 24 h): did not affect cell viability | effect on cell viability (Ect1 cells; 100 μM H2O2, 24 h): did not affect cell viability | decrease in cell density (Ect1 cells; 200 μM H2O2, 24 h, not statistically significant): 20% | decrease in cell viability (Ect1 cells; 400 μM H2O2, 24 h, significant): ~50%

Lipopolysaccharide [LPS]
Fold change ECM1 expression (ECM1 [7]; Ect1, 10 μg/ml LPS): 0.87 ± 0.18 fold | Fold change ECM1 expression (ECM1 [7]; Ect1, 50 μg/ml LPS): 0.81 ± 0.17 fold | Fold change GGH expression (GGH [8]; Ect1, 10 μg/ml LPS): 1.67 ± 0.40 fold | Fold change GGH expression (GGH [8]; Ect1, 25 μg/ml LPS): 1.42 ± 0.23 fold | Fold change GGH expression (GGH [8]; Ect1, 50 μg/ml LPS): 1.80 ± 0.52 fold | GGH expression in conditioned media (GGH [8]; [15]): slight increases | Fold change FGA expression (FGA [9]; Ect1, 10 μg/ml LPS): 1.05 ± 0.15 fold | Fold change FGA expression (FGA [9]; Ect1, 25 μg/ml LPS): 1.13 ± 0.12 fold | Fold change FGA expression (FGA [9]; Ect1, 50 μg/ml LPS): 1.19 ± 0.22 fold | FGA expression in conditioned media (FGA [9]; [15]): slight increases | Fold change LAMC2 expression (LAMC2 [10]): 5.99 ± 1.86 fold | Fold change ECM1 expression (ECM1 [11]; End1, 10 μg/ml LPS): 0.94 ± 0.14 fold | Fold change ECM1 expression (ECM1 [11]; End1, 25 μg/ml LPS): 0.87 ± 0.11 fold | Fold change ECM1 expression (ECM1 [11]; End1, 50 μg/ml LPS): 0.76 ± 0.11 fold | ECM1 expression in conditioned media (ECM1 [11]; End1, LPS treatment, dose not specified, statistically insignificant): small decrease | Fold change GGH expression (GGH [12]; End1, 10 μg/ml LPS): 0.69 ± 0.15 fold | Fold change GGH expression (GGH [12]; End1, 25 μg/ml LPS): 0.92 ± 0.19 fold | Fold change GGH expression (GGH [12]; End1, 50 μg/ml LPS): 0.76 ± 0.13 fold | GGH expression level in conditioned media (GGH [12]; [16]): down-regulated | Fold change FGA expression (FGA [13]; End1, 10 μg/ml LPS): 0.90 ± 0.10 fold | Fold change FGA expression (FGA [13]; End1, 25 μg/ml LPS): 0.92 ± 0.15 fold | Fold change FGA expression (FGA [13]; End1, 50 μg/ml LPS): 0.78 ± 0.10 fold | FGA expression level in conditioned media (FGA [13]; [16]): down-regulated | Fold change LAMC2 expression (LAMC2 [14]; End1, 10 μg/ml LPS): ~8 fold | Fold change LAMC2 expression (LAMC2 [14]; End1, 25 μg/ml LPS): ~8 fold | Fold change LAMC2 expression (LAMC2 [14]; End1, 50 μg/ml LPS): ~8 fold
